Experimental data from patent US10322995B2, “Substituted cyano cycloalkyl penta-2,4-dienes, cyano cycloalkyl pent-2-en-4-ynes, cyano heterocyclyl penta-2,4-dienes and cyano heterocyclyl pent-2-en-4-ynes as active substances against abiotic plant stress” (BAYER CROPSCIENCE AKTIENGESELLSCHAFT, priority 2014, dated 2019).

How the values were obtained:
Brassica napus (BRSNS) = assay: In vivo analyses Part A: drought stress, visual damage scoring, efficacy EF (BRSNS); conditions: spray application 250 g/ha, efficacy = reduction in damage intensity
Experimental: (§1) Seeds of monocotyledonous and dicotyledonous crop plants were sown in sandy loam in wood-fibre pots, covered with soil or sand and cultivated in a greenhouse under good growth conditions. The test plants were treated at the early leaf stage (BBCH10-BBCH13). To assure uniform water supply before commencement of stress, the potted plants were supplied with water by dam irrigation prior to substance application. The inventive compounds, formulated in the form of wettable powders (WP), were sprayed onto the green parts of the plants as an aqueous suspension at an equivalent water application rate of 600 I/ha with addition of 0.2% wetting agent (e.g. agrotin). Substance application was followed immediately by stress treatment of the plants. For this purpose, the pots were transferred in plastic inserts in order to prevent them from subsequently drying out too quickly. Drought stress was induced by gradual drying out under the following conditions: “Day”: 14 hours with illumination at 26° C. “Night”: 10 hours without illumination at 18° C. The duration of the respective stress phases was guided mainly by the condition of the stressed control plants. It was ended (by re-irrigating and transfer to a greenhouse with good growth conditions) as soon as irreversible damage was observed on the stressed control plants. The end of the stress phase was followed by an about 4-7-day recovery phase, during which the plants were once again kept under good growth conditions in a greenhouse. The duration of the recovery phase was guided mainly by when the trial plants had attained a state which enabled visual scoring of potential effects, and was therefore variable. Once this juncture was reached, the intensities of damage were scored visually in comparison to untreated, unstressed controls of the same age. The damage intensity was at first assessed in percent. […]

[1] = system: Triticum aestivum (TRZAS); assay: In vivo analyses Part A: drought stress, visual damage scoring, efficacy EF (TRZAS); conditions: spray application 25 g/ha, efficacy = reduction in damage intensity
Experimental: as §1

[2] = system: Triticum aestivum (TRZAS); assay: In vivo analyses Part C: drought stress, appearance vs stressed control plants in categories (TRZAS); design: key: 0: no positive effect; 10: slight positive effect; 20: clear positive effect; 30: strong positive effect; conditions: appearance vs stressed control plants after recovery phase, efficacy range of 3-4 pots
Experimental: Seeds of monocotyledonous and dicotyledonous crop plants were sown in sandy loam in plastic or wood-fibre pots, covered with soil or sand and cultivated in a greenhouse under good growth conditions. The test plants were treated at the early leaf stage (BBCH10-BBCH13). To assure uniform water supply before commencement of stress, the potted plants were supplied with water by dam irrigation prior to substance application. The inventive compounds were first formulated as wettable powders (WP) or dissolved in a solvent mixture. The further dilution was effected with water supplemented with 0.2% wetting agent (e.g. agrotin). The finished spray liquor was sprayed onto the green parts of the plant at an equivalent water application rate of 600 I/ha. Substance application was followed immediately by stress treatment of the plants. For this purpose, the wood-fibre pots were transferred in plastic inserts in order to prevent them from subsequently drying out too quickly. Drought stress was induced by gradual drying out under the following conditions: “Day”: 14 hours with illumination at 26-30° C. “Night”: 10 hours without illumination at 18-20° C. The duration of the respective stress phases was guided mainly by the condition of the stressed control plants. It was ended (by re-irrigating and transfer to a greenhouse with good growth conditions) as soon as irreversible damage was observed on the stressed control plants. The end of the stress phase was followed by an about 4-7-day recovery phase, during which the plants were once again kept under good growth conditions in a greenhouse. The duration of the recovery phase was guided mainly by when the trial plants had attained a state which enabled visual scoring of potential effects, and was therefore variable. Once this juncture had been reached, the appearance of the plants treated with test substances was recorded in comparison to the stressed control plants by the following categories: [table] For each substance and dosage, 3-4 pots were treated and evaluated. TRZAS=Triticum aestivum

SMILES	EF [%] (BRSNS) (Brassica napus (BRSNS))	EF [%] (TRZAS) [1]	Effect (TRZAS) ([2]; dosage 250 g/ha)	Effect (TRZAS) ([2]; dosage 25 g/ha)
CCOC(=O)/C=C(\C#CC(O)(C(C)C)C1(C#N)CC1)C1CC1 (stereo not drawn) [I.1-124, Ethyl (2Z)-6-(1-cyanocyclopropyl)-3-cyclopropyl-6-hydroxy-7-methyloct-2-en-4-ynoate]	>5%	>5%	–	–
CCOC(=O)/C=C(/C)C#CC(O)(C(C)C)C1(C#N)CC1 (stereo not drawn) [I.1-136]	>5%	>5%	–	–
CC/C(C#CC(O)(C1CCC1)C1(C#N)CC1)=C/C(=O)OC (stereo not drawn) [I.1-648]	–	–	10-20	–
CCC(C=CC(O)(c1ccccc1)C1(C#N)CC1)=CC(=O)O (racemic) [I.2-201]	–	–	–	10
